Data on one compound can be found in patent US6833445B2, “Guanidinylation, guanidinoglycosides, uses, and methods of assaying their activity” (The Regents of the University of California, priority 2000, dated 2004).

The subject of assay [1] is HIV-1. Briefly: Inhibition of viral replication in HIV-1-infected CD4+ HeLa cells (plaque formation). It is filed as cell-based. How it is done:
By converting aminoglycosides into guanidinoglycosides the biological activities of these glycosides were dramatically affected. Neomycin B was reported to be an in vivo and in vitro inhibitor of Rev-RRE binding, as well as an effective inhibitor of HIV-1 replication in vivo. The ability of guanidinoneomycin B and guanidinotobramycin to inhibit viral replication in HIV-1-infected CD4+ HeLa cells was measured and compared to the antiviral activities of neomycin B and tobramycin (FIG. 6). As evidenced by the dose-dependent decrease in plaque formation, the guanidinoglycosides inhibit HIV replication with activities approximately 100 times higher than their amino precursors (FIG. 6). The antiviral activity of the guanidinoglycosides may be related to their ability to bind the RRE with high affinity and specificity, thus preventing the HIV-1 Rev-RRE interaction and viral replication.

For assay [2], the target named is HIV-1 Rev protein RNA recognition element (RRE). Nature of the assay: Fluorescence anisotropy: displacement of fluorescein-labeled Rev peptide from the RRE in solution. It is filed as binding. The source says: In a modification of the above assay, the solid support aspect of the above embodiment is removed. The biophysical characteristics of potential inhibitory test compounds can be detected by fluorescence anisotropy as depicted in FIG. 5. The RRE-bound fluorescent peptide has a slower Brownian tumbling motion relative to the free peptide in solution. Upon displacement of the fluorescently labeled Rev from the RRE by a competing inhibitor, a decrease in the anisotropy value is observed. The displacement of the labeled-Rev can be followed by monitoring the anisotropy at the emission wavelength of the Rev34-50-bound fluorophore.
The HIV-1 Rev-RRE interaction was used to examine the impact of guanidinylation upon RNA binding, and to probe the potential antiviral activity of these compounds. The binding of Rev to the RRE (Rev response element) is responsible for the export of unspliced and singly spliced HIV genomic RNA out of the host nucleus. This essential protein-RNA interaction remains an important, and nonutilized, therapeutic target. The high-affinity Rev binding site on the RRE has been localized to the purine-rich bulge. The binding of Rev to the RRE is governed by the arginine-rich fragment, Rev34-50. Key guanidinium groups make direct contacts with the RNA platform and are essential for the specific binding of Rev to the RRE. Fluorescence anisotropy has been employed to determine the affinity of the new derivatives to the RRE in solution. The RRE-bound fluorescent Rev peptide has a slower Brownian tumbling motion relative to the free peptide. Upon displacement of the fluorescein-labeled Rev peptide from the RRE by an inhibitor, a decrease in the anisotropy value is observed. Table 4 (column a) compares the IC50 values of the guanidinoglycosides to the aminoglycosides. Guanidinylation of kanamycin A, kanamycin B, and tobramycin results in a greater than 10-fold increase in inhibitory activity relative to the parent compounds. A 5-fold increase in activity is observed upon guanidinylation of neomycin B and paromomycin.
(Polarisation of emitted light reports the rotation of a fluorescent probe.)

The target is the same in assay [3]. Briefly: Solid-phase assay: displacement of fluorescent Rev peptide from immobilized RRE. It is filed as binding. The text has this: To facilitate the discovery of active guanidinoglycosides an assay system using HIV-1 response elements can be used. For example, RRE-specific binders as well as TAR specific binders can be identified using the methods of the present invention. The present invention provides a rapid screening assay and method depicted in FIG. 4. The Rev-RRE assay relies on the release of a fluorescently tagged Rev fragment from an immobilized RRE-Rev complex and can be performed under various stringency levels. The assay can be conducted in the presence of competing RNA molecules, other potential cellular targets, or cellular extracts. Only high affinity ligands can effectively compete with the bound Rev34-50 peptide (Kd is approximately 1 nM), thus releasing the highly fluorescent molecules into solution. Non-selective binders will be scavenged by competitor molecules present in solution.
In one embodiment, the present invention provides an assay for identifying a test compound which binds to RRE. The assay includes an immobilized RRE, a detectably labeled Rev, and a test compound. A test compound that liberates the labeled Rev due to competitive binding to the RRE results in an increase in the labeled Rev in the supernatant of the assay. Accordingly, following incubation of immobilized RRE, a labeled Rev, and a test compound, the supernatant is measured and the amount of label in the supernatant is determined. The amount of label in the supernatant is indicative of the degree or ability of the test compound to bind to the RRE or REV polypeptide. By comparing the amount of label in the supernatant with the amount in a control or standard sample, one can identify a test compound which effectively competes with the Rev for binding to RRE. […] In the depicted embodiment of FIG. 4 the ternary complex containing a fluorescently tagged Rev peptide bound to an immobilized RRE is incubated with the test compound (e.g., a potential competitor, binding agent or inhibitor)under conditions and in the presence of competing RNA molecules n a microcentrifuge filter tube. After incubation, the mixture is filtered and the filtrate is illuminated. In the presence of a strong and selective RRE binder, the fluorescently labeled peptide will be released from the beads into solution and the filtrate will become fluorescent.
The basic principle of the assay systems used to identify compounds that inhibit binding of Rev to RRE or compounds that interact with RRE involves preparing a reaction mixture containing the target (e.g., RRE) and the binding partner (e.g., labeled-Rev) under conditions and for a time sufficient to allow the two to interact and bind, thus form a complex. In order to test a compound for inhibitory activity, the reaction mixture is prepared in the presence and absence of the test compound. The test compound can be initially included in the reaction mixture, or can be added at a time subsequent to the addition of the RRE and its binding partner, Rev. Control reaction mixtures are incubated without the test compound or with a placebo. The presence of labeled-Rev that is not bound to RRE over that amount found in a control or standard sample is indicative of a test compound that competes with Rev for binding to RRE.
A novel solid-phase assembly was used to evaluate the RNA specificity of the new derivatives. This assay relies on the displacement of a fluorescent Rev peptide from a solid-phase immobilized RRE and can be performed in the presence of competing nucleic acids. Table 4 (columns b-d) summarizes the IC50 values determined by this method. By comparing IC50 values measured in the absence of any competitors to the values measured in the presence of DNA or RNA, a quantitative measure for the relative selectivity of each ligand can be made. Aminoglycosides have a substantial affinity to poly A-poly U duplex RNA (compare column b to c, Table 4). […] For neomycin, this ratio increases upon guanidinylation, indicating a lower RRE selectivity. […]

The structures appear in SMILES notation.

A word on the IC50: it is the point on the concentration scale where inhibition reaches its midpoint. Take `N=C(N)NCC1OC(OC2C(NC(=N)N)CC(NC(=N)N)C(OC3OC(CO)C(O)C(NC(=N)N)C3O)C2O)C(NC(=N)N)CC1O` (stereo not drawn) [guanidino-tobramycin]: the “inhibition of HIV replication, activity relative to parent aminoglycoside” value in assay [1] is “approximately 100 times”. Also, the IC50 in assay [2] (Fluorescence Anisotropy (Table 4), read-out: IC50 (a) Anisotrophy) worked out at 3.8 µM; in assay [2] (Fluorescence Anisotropy, guanidino form of the glycoside (Table 3), read-out: IC50 (uM) guandino form), 0.65 µM; in assay [3] (15 ug/mL plasmid DNA (pGEM), read-out: IC50 (d) Solid-Phase + DNA) it was 3.5 µM; in assay [3] (15 ug/mL polyA-polyU duplex RNA, read-out: IC50 (c) Solid-Phase + poly A polyU), 5 µM; in assay [3] (Solid Phase Assay, competing DNA (Table 2), read-out: IC50 with DNA), 3 µM; in assay [3] (Solid Phase Assay, competing tRNA (Table 2), read-out: IC50 with tRNA) it was 3.5 µM. In addition, the IC50 in assay [3] (Solid Phase Assay, no competitor (Table 2), read-out: IC50) was 2.5 µM; in assay [3] (Solid-phase, no competitor (Table 4), read-out: IC50 (b) Solid-Phase) it was 3 µM. Further, the “(e) Ratio (c)/(b)” value in assay [3] (IC50 with polyA-polyU divided by IC50 without competitor, proportional to RRE selectivity) stood at 1.7. Also, in assay [3] (solid phase assay), the “more active when compared to tobramycin that has not been guanidinylated” value is “about 20 fold”. Besides, the “activity in the presence of competing nucleic acids” value in assay [3] (solid phase assay, competing DNA / tRNA) was “approximately the same activity in the presence of both competing DNA and tRNA”.
